These results are taken from US20230032020A1, “SMALL-MOLECULE COVALENT INHIBITION OF RAL GTPASES” (THE TRUSTEES OF INDIANA UNIVERSITY, priority 2019, published 2023).

One data set deals with T1, RalB (Homo sapiens, UniProt P11234).
T1 construct: made in house; host or cells: E. coli BL21(DE3)
T1 sequence (P11234 12-185): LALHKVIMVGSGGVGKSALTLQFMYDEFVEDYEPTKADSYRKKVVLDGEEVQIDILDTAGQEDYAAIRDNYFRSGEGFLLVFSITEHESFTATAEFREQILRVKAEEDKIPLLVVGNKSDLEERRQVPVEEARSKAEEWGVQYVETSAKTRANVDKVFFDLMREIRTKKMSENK
The data set can be described thus: Rgl2-mediated guanine nucleotide exchange assay (BODIPY-FL-GDP fluorescence), RalB wild-type. In kind it is biochemical. Particulars: for improvement in IC50 at 24 h compared to Compound 1: RalB WT. The method, then: Fragment-based screening using a library of 89 sulfonyl fluoride compounds was carried out to explore this possibility. A fluorescence-based guanine nucleotide exchange assay was used to measure inhibition of Rgl2-mediated exchange of Ral-bound GDP with fluorescently-labelled boron-dipyrromethene fluorescent GDP (BODIPY-FL-GDP). The increase in fluorescence intensity of the BODIPY-FL group is measured at 30 s intervals.
(§1) A concentration-dependent exchange study then was carried out to obtain the concentration of compound required for 50% inhibition of Rgl2-mediated exchange, as illustrated in FIG. 1D. This was done by incubating RalB with varying concentrations of Compound 1 for 24 hours at a temperature of 4° C., prior to the initiation of nucleotide exchange by the addition of Rgl2 and BODIPY-FL-GDP. The rate constant was calculated by fitting a 3-parameter exponential function for each measurement. To determine percent inhibition, the fitting was also done for control DMSO samples and samples without Rgl2.
(§2) Exchange Assay: 10 μL of RalB (2 μM), RalA (2 μM), and Ras (0.8 μM) in an exchange assay buffer (100 mM NaCl, 10 mM MgCl2, 20 mM Tris pH 8, 0.01% IGEPAL) were added to a 384-well, black, round bottom, low volume, polystyrene plate (Corning, Corning, N.Y., Catalog Number: 4515) and incubated with 2 μL of varying concentrations of compounds in the exchange assay buffer supplemented with 20% v/v DMSO for 24 h (unless otherwise specified) at 4° C. After the incubation, 5 μL of RGL2 (1 μM), SOS (0.4 μM) or buffer was added. Finally, 3 μL of Bodipy-FL-GDP (1.67 μM for RalA/B, 1.0 μM for Ras) was added and the fluorescence was read immediately on an Envision Multilabel Plate Reader (PerkinElmer, Waltham, Mass.) using a filter set with excitation and emission wavelengths of 485 and 535 nm, respectively, for 40 min at 30 sec intervals.
(§3) The fluorescence increase over time was fitted to an exponential function:
(§4) Fluorescence Intensity=Initial Fluorescence+Extent of binding (1−e^−Rate×Time)
(§5) The rate constant of the exchange was calculated by fitting experimental values for Fluorescence Intensity and corresponding Time. The Initial Fluorescence was estimated from the initial reading of the fluorescence intensity from the experimental control sample without guanine exchange factor (GEF). The Extent of binding is the difference between the maximal fluorescence intensity of the DMSO control sample versus the initial fluorescence recorded for the No GEF control sample.
Percent Inhibition and compound concentration are experimental values.

For the next data set, the target named is T2, RalB Tyr82Phe mutant (Homo sapiens, UniProt P11234, Y82F).
T2 construct: made in house; host or cells: E. coli BL21(DE3)
T2 sequence (P11234 12-185 Y82F): T1 sequence (P11234 12-185) with Y71F
Kind of data set: Rgl2-mediated guanine nucleotide exchange assay, RalB Tyr82Phe mutant. Format: biochemical. As for the experimental part: as §1, with “To confirm that inhibition of RalB exchange by Rgl2 was due to covalent bond formation at Tyr-82, the nucleotide exchange study was repeated using RalB Tyr82Phe mutant. […] A” for “A”
as §2, §3, §4, §5
Percent Inhibition and compound concentration are experimental values. Maximum inhibition is set at 100 percent as no plateau were achieved. Minimum inhibition value was data-dependent and were mostly found to be near 0 percent. Due to the fact that the compounds were covalent inhibitors and not classical reversible inhibitors, Hillslope value was not constrained.

The target in a further data set is T3, RalA (Homo sapiens, UniProt P11233).
T3 construct: made in house; host or cells: E. coli BL21(DE3)
T3 sequence (P11233 1-178): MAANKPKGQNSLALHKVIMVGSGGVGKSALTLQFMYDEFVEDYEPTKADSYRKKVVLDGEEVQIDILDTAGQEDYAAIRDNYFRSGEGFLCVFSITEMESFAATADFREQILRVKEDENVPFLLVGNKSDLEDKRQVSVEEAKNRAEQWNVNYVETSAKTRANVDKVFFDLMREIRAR
Kind of data set: Rgl2-mediated guanine nucleotide exchange assay, RalA. Format: biochemical. The conditions noted are these: concentration not given. The method, then: To further probe the contribution of individual amino acids within the binding site of Compound 1, the effect of the compound on the rate of nucleotide exchange was tested against two RalB mutants, Ser85Ala and Thr69Ala.
as §2, §3, §4
The rate constant of the exchange was calculated by fitting experimental values for Fluorescence Intensity and corresponding Time. […]

The nature of data set [1]: Compound stability assay in buffer. In kind it is physicochemical. As for the experimental part: Compound Stability Assay. 200 μM Compound 1 was incubated in a buffer containing 20 mM Tris pH 8.0, 100 mM NaCl, 10 mM MgCl2 at 4° C. for varying amounts time. After the incubation, the samples were centrifuged at 20,000×g for 10 min to remove precipitants prior to being injected into an Agilent EclipsePlus C18 RRHD column (Agilent, Santa Clara, Calif.) on an Agilent 1200 liquid chromatography system (Agilent, Santa Clara, Calif.), using a linear gradient from 100% Buffer A (H2O with 0.1% Formic Acid) to 70% Buffer B (acetonitrile with 0.1% Formic Acid), and the masses were detected on an Agilent 6520 Accurate Mass Q-TOF.

The subject of data set [2] is Pa03C pancreatic cancer cell. Kind of data set: Pa03C pancreatic cancer cell growth in 3-D co-culture with fibroblasts. In kind it is cell-based. Particulars: relative to media or DMSO.
Setting [3] is: IC50 at 24 h (μM) RalB WT, 24 h incubation at 4° C.

Changes are numbered by the printed parent chain. Like-named read-outs stand apart in the source and are kept apart here.

Broadly, the IC50 is the concentration that inhibits the measured activity by half. For `COc1ncccc1NS(=O)(=O)c1ccc(S(=O)(=O)F)cc1` [Compound 2], at RalB (setting [3]), the 50% inhibitory concentration (IC50) was 23.1 ± 6.8 µM. Also, the “improvement in IC50 at 24 h compared to Compound 1” value on RalB is recorded as 2 fold. For the same compound, the half-maximal inhibitory concentration (IC50) at 24 h (μM) RalB Tyr82Phe at RalB Tyr82Phe mutant (24 h incubation at 4° C., NI = No Inhibition) is given as “no inhibition”.
On RalB (setting [3]), `COc1ccc(Cl)c(NS(=O)(=O)c2ccc(S(=O)(=O)F)cc2)n1` [Compound 23] returned an IC50 of 127 ± 11.7 µM.
`CCc1ccc(NS(=O)(=O)c2ccc(S(=O)(=O)F)cc2)cn1` [Compound 13] returned an IC50 against RalB (setting [3]) of 164 ± 26 µM.
The same measure, in the same setting: as for `COc1cccc(NS(=O)(=O)c2ccc(S(=O)(=O)F)cc2)n1` [Compound 22], the figure is 64 ± 4.1 µM.
Take `COc1ncccc1NS(=O)(=O)c1ccc(S(=O)(=O)F)c2c1CCCC2` [SOF-371]: the “inhibition of RalB exchange” value against RalB (24 h incubation at 4° C.) is “inhibits RalA and Ral B exchange”. The “inhibition of RalA exchange” value against RalA is “inhibits RalA and Ral B exchange”. Moreover, on RalB Tyr82Phe mutant (24 h incubation at 4° C.), the “inhibition of Y82F” value is “inhibits Y82F”. For the same compound, the “stability relative to Compound 1” value in data set [1] is “higher stability than Compound 1”.
For the compound `O=S(=O)(F)c1ccc(S(=O)(=O)Nc2ncccc2Cl)cc1` [Compound 4], the IC50 stood at 41.7 ± 8.5 µM at RalB (setting [3]) and 215 ± 84.5 µM against RalB Tyr82Phe mutant.
The matching figures for `CCc1cncc(NS(=O)(=O)c2ccc(S(=O)(=O)F)cc2)c1` [Compound 14]: 91.4 ± 2.9 µM and 167 ± 8.7 µM.
As to `O=S(=O)(F)c1ccc(S(=O)(=O)Nc2cncc(Cl)n2)cc1` [Compound 7], at RalB (setting [3]), the IC50 stood at 49.4 ± 3.5 µM.
Consider `COc1cncc(NS(=O)(=O)c2ccc(S(=O)(=O)F)cc2)c1` [Compound 1], for which the 50% inhibitory concentration (IC50) is 153 ± 29.9 µM against RalB (IC50 at 6 h, Rgl2-mediated exchange of RalB, 6 h incubation at 4° C.); 49.5 ± 2.3 µM against RalB (setting [3]); more than 100 µM at RalB Tyr82Phe mutant (read-out: IC50 at 24 h (μM) RalB Tyr82Phe, 24 h incubation at 4° C., NI = No Inhibition).
In the case of `CS(=O)(=O)c1ccc(NS(=O)(=O)c2ccc(S(=O)(=O)F)cc2)cn1` [Compound 10], the 50% inhibitory concentration (IC50) on RalB (setting [3]) was 147 ± 42 µM; at RalB Tyr82Phe mutant, 238 ± 55.4 µM.
As for `COc1cccc(NS(=O)(=O)c2ccc(S(=O)(=O)F)cc2)c1` [Compound 11], the concentration for half-maximal inhibition (IC50) against RalB (setting [3]) is 26 ± 4.6 µM; against RalB Tyr82Phe mutant, 164 ± 42.3 µM.
The corresponding values for `CC(C)Oc1cncc(NS(=O)(=O)c2ccc(S(=O)(=O)F)cc2)c1` [Compound 16] are 79.5 ± 2.3 µM and 333 ± 31 µM.
`COc1cc(NS(=O)(=O)c2ccc(S(=O)(=O)F)cc2)ccn1` [Compound 12] returned a half-maximal inhibitory concentration (IC50) on RalB (setting [3]) of 146 ± 14.2 µM.
As for `COc1cc(F)cc(NS(=O)(=O)c2ccc(S(=O)(=O)F)c3c2OCCO3)c1` [SOF-531], the “inhibition of Pa03C pancreatic cancer cell growth” value in data set [2] is on record as “concentration-dependent inhibition”.
`O=S(=O)(F)c1ccc(S(=O)(=O)Nc2cccc(F)n2)cc1` [Compound 6] came in with an IC50 against RalB (setting [3]) of 51.5 ± 5.2 µM.
In the case of `COc1ccc(NS(=O)(=O)c2ccc(S(=O)(=O)F)cc2)cc1` [Compound 9], the half-maximal inhibitory concentration (IC50) on RalB (setting [3]) was 60.3 ± 3 µM; on RalB Tyr82Phe mutant, 100 ± 11.1 µM.
The matching figures for `CCOc1cncc(NS(=O)(=O)c2ccc(S(=O)(=O)F)cc2)c1` [Compound 15]: 85.5 ± 7.9 µM and 235 ± 167 µM.
The corresponding values for `COc1cc(Cl)nc(NS(=O)(=O)c2ccc(S(=O)(=O)F)cc2)c1` [Compound 21] are 24 ± 1 µM and 138 ± 34.2 µM.
The corresponding values for `O=S(=O)(F)c1ccc(S(=O)(=O)Nc2cccnc2O)cc1` [Compound 3] are 17 ± 7.7 µM and 79.3 ± 19 µM.
In turn, `O=S(=O)(F)c1ccc(S(=O)(=O)Nc2cccc(Cl)n2)cc1` [Compound 5] showed an IC50 against RalB (setting [3]) of 24.4 ± 4.9 µM. Also, the “improvement in IC50 at 24 h compared to Compound 1” value on RalB turned out to be 2 fold.
